pEC50: −log10 of the molar value. Where a name gives a salt, the structure may show the parent alone.
target: T1, human TLR7 (Homo sapiens, UniProt Q9NYK1); experiment: TLR7/8 reporter assay (HEK293, NFκB Nanoluc luciferase reporter), human TLR7; format: cell-based; conditions: 24-hour incubation; read-out: hTLR7 EC50
T1 construct: expressed in transfected cells
T1 sequence (Q9NYK1 27-1049): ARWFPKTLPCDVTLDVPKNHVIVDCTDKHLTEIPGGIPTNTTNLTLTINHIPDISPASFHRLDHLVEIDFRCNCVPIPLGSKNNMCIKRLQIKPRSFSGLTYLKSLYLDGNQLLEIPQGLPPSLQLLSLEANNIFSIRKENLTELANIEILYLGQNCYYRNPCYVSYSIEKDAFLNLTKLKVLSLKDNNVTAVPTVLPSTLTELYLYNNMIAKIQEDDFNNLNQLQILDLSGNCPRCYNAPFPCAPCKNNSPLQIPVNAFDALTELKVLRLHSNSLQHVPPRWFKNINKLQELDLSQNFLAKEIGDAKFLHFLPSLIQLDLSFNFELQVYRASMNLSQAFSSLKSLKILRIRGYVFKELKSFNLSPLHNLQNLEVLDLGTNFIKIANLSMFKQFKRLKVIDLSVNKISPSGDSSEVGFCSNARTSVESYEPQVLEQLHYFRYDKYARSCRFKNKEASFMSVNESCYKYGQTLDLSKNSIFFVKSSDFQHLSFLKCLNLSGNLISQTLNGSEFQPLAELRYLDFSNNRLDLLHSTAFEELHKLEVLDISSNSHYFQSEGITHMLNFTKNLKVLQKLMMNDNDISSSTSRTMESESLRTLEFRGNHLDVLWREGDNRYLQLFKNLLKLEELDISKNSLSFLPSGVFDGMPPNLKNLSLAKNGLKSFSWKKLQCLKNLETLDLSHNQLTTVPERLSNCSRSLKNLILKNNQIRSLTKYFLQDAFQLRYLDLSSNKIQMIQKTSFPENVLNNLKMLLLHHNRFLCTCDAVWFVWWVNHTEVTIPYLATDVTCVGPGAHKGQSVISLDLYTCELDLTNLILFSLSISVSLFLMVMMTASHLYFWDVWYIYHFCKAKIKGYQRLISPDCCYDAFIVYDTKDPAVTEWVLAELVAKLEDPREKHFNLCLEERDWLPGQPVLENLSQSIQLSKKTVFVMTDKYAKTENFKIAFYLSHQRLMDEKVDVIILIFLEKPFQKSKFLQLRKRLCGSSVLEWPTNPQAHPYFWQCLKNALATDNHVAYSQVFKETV
Description: HEK293 cells (ATCC, #CRL-1573) were co-transfected with an expression vector having a nucleotide sequence encoding a TLR (human TLR7, human TLR8 or mouse TLR7) protein and a Nanoluc PEST luciferase reporter vector having an NFκB response element sequence (Genbank: JQ513377 bases 33 to 84) integrated therein. Thereafter, the transfected cells were cultured in DMEM (Sigma-Aldrich, #D5796-500 mL) containing Geneticin (Gibco, #10131-027) at a final concentration of 800 μg/mL, Hygromycin B (Invitrogen, #10687010) at a final concentration of 500 μg/mL, penicillin streptomycin (Gibco, #15070-063) at a final concentration of 1% and a 10% fetal bovine serum (FBS) (HyClone, #SH30084.03) to obtain a stable cell line for expression.
To reporter cells obtained above, DMEM containing 10% FBS was added to prepare a suspension of 1×10^5 cells/mL. The suspension was added to the wells of a 384-well white plate coated with collagen I (hereinafter referred to as “384-well plate”, Corning, #356703) at a rate of 20 μL per well. The cells were cultured in the conditions of 37° C. and 5% CO2, overnight (18 hours) and allowed to adhere to the plate. A test sample was dissolved in DMSO. The solution was diluted by adding DMEM medium containing 10% FBS to the solution such that the concentration becomes 5-fold as high as a final concentration. The diluted DMEM medium was added to the wells of the 384-well plate at a ratio of 5 μL/well. After the medium was further incubated in the conditions of 37° C. and 5% CO2 for 24 hours, the plate was taken out and allowed to stand still at room temperature for 10 minutes. Thereafter, chemiluminescence was measured using Nano-Glo Luciferase Assay System (Promega, #N1120) and EnVision 2104 (PerkinElmer) plate reader. A dose-response curve was prepared for each test sample and the EC50 value was obtained as a concentration at 50% of the maximum signal. In the table, hTLR7 represents human TLR7 and hTLR8 represents human TLR8; and mTLR7 represents mouse TLR7. A data item attached with an asterisk (*) indicates the result of 7 hour-incubation and other data items are the results of 24-hour incubation.

pEC50 | SMILES
8.95 | CCCCCNc1nc(N)nc2ccn(Cc3ccc(CN4CCNC[C@H]4CF)cc3OC)c12 [Ex1, 5-[(4-{[(2S)-2-(fluoromethyl)piperazin-1-yl]methyl}-2-methoxyphenyl)methyl]-N^4-pentyl-5H-pyrrolo[3,2-d]pyrimidine-2,4-diamine]
8.75 | CCCCCNc1nc(N)nc2ccn(Cc3ccc(CN4CCN[C@@H](CF)C4)cc3OC)c12 [Ex2, 5-[(4-{[(3R)-3-(fluoromethyl)piperazin-1-yl]methyl}-2-methoxyphenyl)methyl]-N^4-pentyl-5H-pyrrolo[3,2-d]pyrimidine-2,4-diamine (trifluoroacetic acid) salt]
8.46 | CCCCCNc1nc(N)nc2ccn(Cc3ccc(CNC4CC4)cc3OC)c12 [Ex3, 5-({4-[(cyclopropylamino)methyl]-2-methoxyphenyl}methyl)-N^4-pentyl-5H-pyrrolo[3,2-d]pyrimidine-2,4-diamine]
7.27 | CCCCCSc1nc(N)nc2ccn(Cc3ccc(CN4CCNCC4)cc3OC)c12 [Ex4, 5-({2-methoxy-4-[(piperazin-1-yl)methyl]phenyl}methyl)-4-(pentylsulfanyl)-5H-pyrrolo[3,2-d]pyrimidin-2-amine]
7.35 | CCCCCSc1nc(N)nc2ccn(Cc3ccc(CN4CCC[C@H]4CO)cc3OC)c12 [Ex5, {(2S)-1-[(4-{[2-amino-4-(pentylsulfanyl)-5H-pyrrolo[3,2-d]pyrimidin-5-yl]methyl}-3-methoxyphenyl)methyl]pyrrolidin-2-yl}methanol]
8.49 | CCCCCNc1nc(N)nc2c(Cl)cn(Cc3ccc(CN4CCC[C@H]4CO)cc3OC)c12 [Ex6, {(2S)-1-[(4-{[2-amino-7-chloro-4-(pentylamino)-5H-pyrrolo[3,2-d]pyrimidin-5-yl]methyl}-3-methoxyphenyl)methyl]pyrrolidin-2-yl}methanol]
8.09 | CCCCCNc1nc(N)nc2c(Br)cn(Cc3ccc(CN4CCC[C@H]4CO)cc3OC)c12 [Ex7, {(2S)-1-[(4-{[2-amino-7-bromo-4-(pentylamino)-5H-pyrrolo[3,2-d]pyrimidin-5-yl]methyl}-3-methoxyphenyl)methyl]pyrrolidin-2-yl}methanol]
7.95 | CCCCCNc1nc(N)nc2cc(C)n(Cc3ccc(CN4CCNCC4)cc3OC)c12 [Ex8, 5-({2-methoxy-4-[(piperazin-1-yl)methyl]phenyl}methyl)-6-methyl-N^4-pentyl-5H-pyrrolo[3,2-d]pyrimidine-2,4-diamine hydrochloride]
8.56 | CCCCCNc1nc(N)nc2ccn(Cc3ccc(CC4CCNCC4)cc3OC)c12 [Ex9, 5-({2-methoxy-4-[(piperidin-4-yl)methyl]phenyl}methyl)-N^4-pentyl-5H-pyrrolo[3,2-d]pyrimidine-2,4-diamine]
8.56 | CCCCCNc1nc(N)nc2ccn(Cc3ccc(CN4CCNC[C@@H]4CF)cc3OC)c12 [Ex10, 5-[(4-{[(2R)-2-(fluoromethyl)piperazin-1-yl]methyl}-2-methoxyphenyl)methyl]-N^4-pentyl-5H-pyrrolo[3,2-d]pyrimidine-2,4-diamine]
7.75 | COc1cc(CN2CCNC[C@H]2CF)ccc1Cn1ccc2nc(N)nc(SCc3cc(C)on3)c21 [Ex11]
8.73 | CCCCCNc1nc(N)nc2ccn(Cc3ccc(CNCC4CCC4)cc3OC)c12 [Ex12]
7.63 | CCCCCSc1nc(N)nc2ccn(Cc3ccc(CN4CC[C@H]4CO)cc3OC)c12 [Ex13]
7.54 | CCCCCSc1nc(N)nc2ccn(Cc3ccc(CN4CCC(O)CC4)cc3OC)c12 [Ex14]
6.86 | CCCCCSc1nc(N)nc2ccn(Cc3ccc(CN4CC[C@@H](CN)C4)cc3OC)c12 [Ex15]
8.60 | CCCCCNc1nc(N)nc2c(Cl)cn(Cc3ccc(CN4CC[C@H]4CO)cc3OC)c12 [Ex17]
8.18 | CCCCCNc1nc(N)nc2c(Cl)cn(Cc3ccc(CN4CCC[C@H]4C(C)(C)O)cc3OC)c12 [Ex18]
